According to patent US20200390100A1, “SUBSTITUTED N-HETEROCYCLYL- AND N-HETEROARYL-TETRAHYDROPYRIMIDINONES AND THE SALTS THEREOF, AND THE USE OF SAME AS HERBICIDAL ACTIVE SUBSTANCES” (Bayer Aktiengesellschaft, priority 2017, published 2020):

Legend:
Assay in all cases: Herbicidal pre-emergence action (Part 2), 1280 g/ha
Format in all cases: in vivo
Abutilon theophrasti = conditions: application rate 1280 g/ha, scored visually after about 3 weeks, Table D5
Summary of the method: (§1)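 Weed seeds were sown in sandy loam and covered with soil, then compound formulated as WP or EC was sprayed onto the covering soil as aqueous suspension/emulsion with 0.5% additive at 600 L/ha water. Pots were kept in a greenhouse; activity was scored visually versus untreated controls after about 3 weeks (0–100%).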

Poa annua = conditions: application rate 1280 g/ha, scored visually after about 3 weeks, Table D3
Summary of the method: as §1

Setaria viridis = conditions: application rate 1280 g/ha, scored visually after about 3 weeks, Table D4
Summary of the method: as §1

Echinochloa crus-galli = conditions: application rate 1280 g/ha, scored visually after about 3 weeks, Table D1
Summary of the method: as §1

Matricaria inodora = conditions: application rate 1280 g/ha, scored visually after about 3 weeks, Table D7
Summary of the method: as §1

Stellaria media = conditions: application rate 1280 g/ha, scored visually after about 3 weeks, Table D8
Summary of the method: as §1

Lolium rigidum = conditions: application rate 1280 g/ha, scored visually after about 3 weeks, Table D2
Summary of the method: as §1

Amaranthus retroflexus = conditions: application rate 1280 g/ha, scored visually after about 3 weeks, Table D6
Summary of the method: as §1

CC1CC(O)N(c2cc(C(C)(C)C)on2)C(=O)N1C (centres unmarked) [I.41-162, 1-(5-tert-Butyl-1,2-oxazol-3-yl)-6-hydroxy-3,4-dimethyltetrahydropyrimidin-2(1H)-one]
100%: Abutilon theophrasti (Abutilon theophrasti) | Poa Annua (Poa annua) | Setaria viridis (Setaria viridis) | Echinochloa crus-galli (Echinochloa crus-galli) | Matricaria inodora (Matricaria inodora) | Stellaria media (Stellaria media) | Lolium rigidum (Lolium rigidum) | Amaranthus retroflexus (Amaranthus retroflexus)
